Structures are written as SMILES.

The text below walks through data of EP3409761B1, “CULTURE MEDIUM COMPOSITION, AND METHOD FOR CULTURING CELL OR TISSUE USING SAID COMPOSITION” (Nissan Chemical Corporation, priority 2012, dated 2014).

The test system of data set [1] is HepG2 cells. The data set is described as follows: Toxicity test of compound to hepatocytes: LDH activity measurement. It is filed as cell-based, human. Particulars: DAG 0.015%, 1 day. The protocol: (§1) This aqueous solution was sterilized at 121°C for 20 min in an autoclave. On the other hand, HepG2 cells was mixed with DMEM medium (manufactured by WAKO) at 100000 cells/mL, and the cell suspension was dispensed to the wells of a 96-well flat bottom ultra low adhesion surface microplate (manufactured by Corning Incorporated, #3474) at 100 µL/well. […] Successively, this plate was cultured by being stood still in a CO2 incubator (37°C, 5% CO2) for 1 day.
To the culture medium (100 µL) after culturing for 1 day was added DMEM medium (manufactured by WAKO, 100 µL), and the plate was centrifuged by 4316.4 m·s^-2 (440G) for 15 min. The supernatant (100 µL) was dispensed to a 96-well titer plate (manufactured by Corning Incorporated), a reaction mixture (100 µL) in a cytotoxicity detection kit (manufactured by Roche Applied Science) was added, and the mixture was stood under shading at room temperature for 30 min. Successively, according to the protocol of the above-mentioned kit, the absorbance at 490 nm (reference; 600 nm) was measured by an absorbance spectrometer (manufactured by Molecular Devices, SPECTRA MAX 190), whereby the rate of the disordered cell, that is, cell disorder rate (%), was measured.

Data set [2] has as its system HepG2 cells. The data set is described as follows: Toxicity test of compound to hepatocytes: number of viable cells (Cell Titer-Glo). Type of data set: cell-based, human. Particulars: DAG 0.015%, 1 day, no addition = 1. The protocol: as §1
The culture medium (50 µL) after culturing for 1 day was dispensed to a 96-well titer plate (manufactured by Corning Incorporated), to this culture medium was added a Cell Titer-Glo (registered trade mark) reagent (manufactured by Promega, 50 µL), and the mixture was incubated at room temperature for 10 min. The luminescence intensity was measured by a multiplate reader (manufactured by Molecular Devices, FlexStation3) to measure the number of viable cells.
Background: In ATP-based viability assays light output follows the ATP content of the culture.

Take `Cc1c(C)c2c(c(C)c1O)CCC(C)(COc1ccc(CC3SC(=O)NC3=O)cc1)O2` (centres unmarked) [Troglitazone]: the cell disorder rate in the data set with HepG2 cells [1] (Troglitazone 20 µM) was 2.68%; in the data set on HepG2 cells [1] (Troglitazone 40 µM), 14.7%; in the data set with HepG2 cells [1] (Troglitazone 60 µM), 22.5%; with HepG2 cells [1] (Troglitazone 100 µM) it was 60.7%. The relative cell number with HepG2 cells [2] (Troglitazone 20 µM) came to 0.68; in the data set with HepG2 cells [2] (Troglitazone 40 µM) it was 0.50; in the data set with HepG2 cells [2] (Troglitazone 60 µM), 0.48; in the data set on HepG2 cells [2] (Troglitazone 100 µM), 0.39.
